Laboratory results published in publication PMC11345766, “Computational Design of Pore-Forming Peptides with Potent Antimicrobial and Anticancer Activities” (Journal of Medicinal Chemistry, 2024).

How the values were obtained:
[1] = system: HL-60, K-562, MCF-7 and HCT-116 cells; assay: Viability by flow cytometry DiOC6/7AAD staining, effect of pH and media; assay type: cell-based, human; conditions: 10 μM, 1 h; RPMI, DMEM, PBS at pH 8, 7, 6 and ∼7.6
Description: To investigate the effect of pH and media on anticancer activity, we further tested the peptides against four cell lines, HL-60, K-562, and MCF-7, and the colon cancer cells HCT-116, cultured in three different media, namely, RPMI, DMEM, and PBS, each adjusted to three different pH values 8, 7, and 6, and additionally one case without pH adjustment (∼7.6) (Figure 6c). To avoid pH changes due to the natural buffering of the CO2-bicarbonate system used in cell culture, the peptides were tested at a concentration of 10 μM for only 1 h, as the cell lysis effect was already apparent within 30 min of exposure (Figure S9d).
Effects of pH and culture medium on the anticancer activity of peptides against acute myeloid leukemia HL-60, chronic myeloid leukemia K-562, breast adenocarcinoma MCF-7, and colon cancer cells HCT-116 cultured in three different media RPMI (#21875034, Gibco), DMEM (#LM-D1110/500, Biosera), and PBS adjusted to three different pH values 8, 7, and 6, and a medium without pH adjustment (∼7.6), were tested using flow cytometry DiOC6/7AAD (3,3-dihexyloxacarbocyanine iodide/7-amino-actinomycin D) staining assay, as described previously.[102] Media pH was adjusted twice, i.e., 1 day before the experiment and immediately before the experiment. Medium was supplemented with 10% heat-inactivated FBS, glutamine, sodium pyruvate, and antibiotics (100 U/mL penicillin and 100 μg/mL streptomycin). […] To determine cell viability, cells were incubated with DiOC6 (Thermo Fisher Scientific) and 7AAD (Thermo Fisher Scientific) for 15 min at 37 °C and cell viability was measured using a BriCyte E6 flow cytometer (Mindray); viable cells were considered as DiOC6-positive and 7AAD-negative.
The effect of pH on peptide activity in cancer cells was evaluated by the multiway ANOVA followed by Tukey post hoc test. Regarding the comparison of the effect of the medium, we analyzed the data from Figure 6c by comparing RPMI medium and DMEM of the same pH, and statistical significance was assessed using the multiway ANOVA followed by Tukey post hoc test. […]

[2] = system: MOLM-13, MEC-1 and SU-DHL-4 cancer cell lines; conditions: read-out: IC50 values over three cancer cell lines; after 24 h of incubation; physiological pH
Description: Anticancer activity of peptides against acute myeloid leukemia MOLM-13, chronic lymphocytic leukemia MEC-1, and diffuse large B-cell lymphoma SU-DHL-4 cell lines was tested using a WST cell viability assay. Cells were cultured in 75 cm^2 culture flasks at 37 °C in 5% CO2 according to the DSMZ recommendations before the start of the experiment. Then, the cells were seeded into 96-well plates in quadruplicate at 2.5 × 10^4 cells/well for SU-DHL-4, and 5 × 10^4 cells/well for MEC-1 and MOLM-13. Cells were treated with either peptides or PBS alone (negative control) for 24–72 h at 37 °C in 5% CO2. After incubation, cell viability was measured by WST-1 (Roche) according to the manufacturer’s instructions using Tecan microplate reader Infinite M200 PRO Plex and expressed as percentage compared to control.

SMILES: CC[C@H](C)[C@H](NC(=O)CN)C(=O)NCC(=O)N[C@@H](C)C(=O)N[C@H](C(=O)N[C@@H](CC(C)C)C(=O)N[C@@H](CCCCN)C(=O)N[C@H](C(=O)N[C@@H](CC(C)C)C(=O)N[C@H](C(=O)N[C@H](C(=O)NCC(=O)N[C@@H](CC(C)C)C(=O)N1CCC[C@H]1C(=O)N[C@@H](C)C(=O)N[C@@H](CC(C)C)C(=O)N[C@H](C(=O)N[C@@H](CO)C(=O)N[C@@H](Cc1c[nH]c2ccccc12)C(=O)N[C@H](C(=O)N[C@@H](CCCCN)C(=O)N[C@@H](CCCNC(=N)N)C(=O)N[C@@H](CCCCN)C(=O)N[C@@H](CCCNC(=N)N)C(=O)N[C@@H](CCC(N)=O)C(=O)N[C@@H](CCC(N)=O)C(N)=O)[C@@H](C)CC)[C@@H](C)CC)[C@@H](C)O)[C@@H](C)O)C(C)C)C(C)C [Melittin, reference compound]
- Activity against cancer cells (cell viability) as a function of pH and medium [1]: did not allow cell growth
- IC50 [2]: < 5 µM
